Data on nine compounds can be found in patent US5486516A, “Furopyrimidine derivatives” (DowElanco, priority 1993, dated 1996).

In data set [1] the test system is southern armyworm (Spodopetra eridania Cramer). Put plainly: Mite/insect screen, Southern armyworm. The format is in vivo. The following applies: for mortality at 200 ppm / mortality at 400 ppm: Spodoptera eridania, read-out: SAW results (percent mortality). The method, boiled down: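 Compounds in acetone/alcohol with Toximul emulsifiers, diluted in water, sprayed to runoff on squash leaves at 10 psi and dried 1 h. Excised treated leaves fed to southern armyworm larvae in Petri dishes; percent mortality scored after standard exposure.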

Data set [2] has as its system Pseudoperonospora cubensis (downy mildew). The data set can be described thus: Plant pathology screen (Test 1), downy mildew on squash. The following applies: foliar, read-out: DOWN MDEW control rating.
Data set [3] relates to Twospotted spider mites (Tetranychus urticae Koch). Put plainly: Mite/insect screen, twospotted spider mites. The format is in vivo. Particulars: Tetranychus urticae, read-out: SM results (percent mortality). The method, boiled down:
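Squash cotyledons infested with mites were sprayed to runoff at 10 psi with compound in acetone/alcohol plus emulsifiers, diluted in water to the stated concentrations. Percent mortality and phytotoxicity were scored after standard exposure periods.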

In data set [4] the test system is Erysiphe graminis tritici (powdery mildew). The data set can be described thus: Plant pathology screen (Test 1), powdery mildew on wheat. The following applies: Blumeria graminis, in Triticum aestivum, foliar, read-out: POWD MDEW control rating.
The subject of data set [5] is Botrytis cinerea (gray mold). Put plainly: Plant pathology screen (Test 1), gray mold on grape berries. Particulars: read-out: GRAY MOLD control rating.
Method: This screen was used to evaluate the efficacy of the present compounds against a variety of different organisms that cause plant diseases.
The test compounds were formulated for application by dissolving 50 mg of the compound into 1.25 ml of solvent. The solvent was prepared by mixing 50 ml of "Tween 20" (polyoxyethylene (20) sorbitan monolaurate emulsifier) with 475 ml of acetone and 475 ml of ethanol. The solvent/compound solution was diluted to 125 ml with deionized water. The resulting formulation contains 400 ppm test chemical. Lower concentrations were obtained by serial dilution with the solvent-surfactant mixture.
The formulated test compounds were applied by foliar spray. The following plant pathogens and their corresponding plants were employed.
The formulated technical compounds were sprayed on all foliar surfaces of the host plants (or cut berry) to past run-off. Single pots of each host plant were placed on raised, revolving pedestals in a fume hood. Test solutions were sprayed on all foliar surfaces. All treatments were allowed to dry and the plants were inoculated with the appropriate pathogens within 2-4 hours.
The effectiveness of test compounds in controlling disease was rated using the following scale.
In data set [6] the test system is Southern corn rootworm (Diabrotica undecimpuctata howardi Barber). The data set can be described thus: Mite/insect screen, corn rootworm. The format is in vivo. Particulars: soil; for mortality at 12 ppm / mortality at 24 ppm: Diabrotica, read-out: CRW results (percent mortality). The method, boiled down:
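Compound in acetone/alcohol with emulsifiers, diluted with water; 1 mL applied to 15 g dry sandy soil holding a presoaked corn seed. After 6–12 h drying, five 2-3 instar larvae added, held at 23° C; percent mortality and phytotoxicity scored after standard exposure periods.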

The subject of data set [7] is Puccinia recondita tritici (leaf rust). Put plainly: Plant pathology screen (Test 1), leaf rust on wheat. The following applies: in Triticum aestivum, foliar, read-out: LEAF RUST control rating.
Data set [8] has as its system melon aphids (Aphis gossvpii Glover). Put plainly: Mite/insect screen, melon aphids. Format: in vivo. Particulars: for mortality at 200 ppm / mortality at 400 ppm: Aphis, read-out: MA results (percent mortality). The procedure, abridged:
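Aphids established on squash cotyledons were sprayed to runoff with compound in acetone/alcohol with sulfonate/nonionic emulsifiers, diluted in water to test concentrations. Leaves dried 1 h. Percent mortality scored after standard exposure periods.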

In data set [9] the test system is Pyricularia oryzae (rice blast). Put plainly: whole plant or invertebrate. Particulars: foliar, read-out: RICE BLAST control rating. The format is in vivo.

Molecules are shown by their SMILES. Like-named read-outs stand apart in the source and are kept apart here.

As for `Cc1oc2ncnc(OC3CN4CCC3CC4)c2c1C` (centres unmarked) [Example 17, 5,6-dimethyl-4-(1-azabicyclo[2.2.2]oct-3-yloxy)furo[2,3-d]pyrimidine], the mortality at 200 ppm in [1], in data set [3] and in data set [8] was 0% each time. For the same compound, the mortality at 400 ppm in data set [1], in [3] and in [8] was 0% throughout. The pest or weed control at 400 µg/mL in [2], in [4], in data set [5], in data set [7] and in data set [9] was 0 to 19% each time. Besides, the mortality at 12 ppm in data set [6] turned out to be 0%. Besides, the mortality at 24 ppm in [6] worked out at 0%.
For `Cc1oc2ncnc(NCCC3CCC4CCCCC4C3)c2c1C` (centres unmarked) [Example 18, N-[2-(decahydro-2-naphthyl)ethyl]-5,6-dimethylfuro[2,3-d]pyrimidin-4-amine], the mortality at 200 ppm in [1] (rate 200 ppm, sprayed leaves) came to 0%; in data set [3] (rate 200 ppm, sprayed leaves), 0%; in data set [8] (rate 200 ppm, sprayed leaves), 0%. The mortality at 400 ppm is 0% in [1] (rate 400 ppm, sprayed leaves); 0% in data set [3] (rate 400 ppm, sprayed leaves); 0% in data set [8] (rate 400 ppm, sprayed leaves). Besides, the pest or weed control at 400 µg/mL in [2] fell in the range of 0 to 19%; in data set [4], 0 to 19%; in data set [5], 20 to 89%; in data set [7], 0 to 19%; in data set [9], 0 to 19%. For the same compound, in data set [6] (CRW rate 12.00 ppm), the mortality at 12 ppm came out at 0%. Further, the mortality at 24 ppm in [6] (CRW rate 24.00 ppm) was 0%.
As to `Cc1coc2ncnc(NCCc3ccccc3)c12` [Example 19, 5-methyl-N-(2-phenylethyl)furo[2,3-d]pyrimidin-4-amine], the mortality at 200 ppm was determined as 0% in data set [1] (rate 200 ppm, sprayed leaves); 0% in data set [3] (rate 200 ppm, sprayed leaves); 0% in data set [8] (rate 200 ppm, sprayed leaves). Also, the mortality at 400 ppm in data set [1] (rate 400 ppm, sprayed leaves) came out at 0%; in [3] (rate 400 ppm, sprayed leaves) it was 0%; in [8] (rate 400 ppm, sprayed leaves) it was 90%. For the same compound, the pest or weed control at 400 µg/mL was 90 to 100% in data set [2]; 20 to 89% in data set [4]; 0 to 19% in [5]; 90 to 100% in data set [7]; 0 to 19% in [9]. In addition, the mortality at 12 ppm in data set [6] (CRW rate 12.00 ppm) came out at 0%. Further, the mortality at 24 ppm in [6] (CRW rate 24.00 ppm) is 0%.
As for `Cc1oc2ncnc(NCCc3ccc(C(C)(C)C)cc3)c2c1C` [Example 20, N-[2-[4-(t-butyl)phenyl]ethyl]-5,6-dimethylfuro[2,3-d]pyrimidin-4-amine], the mortality at 200 ppm in data set [1] (rate 200 ppm, sprayed leaves) was found to be 0%; in [3] (rate 200 ppm, sprayed leaves), 0%; in [8] (rate 200 ppm, sprayed leaves), 0%. Besides, the mortality at 400 ppm was found to be 0% in [1] (rate 400 ppm, sprayed leaves) and 0% in [8] (rate 400 ppm, sprayed leaves). Also, the “SAW results (percent mortality)” value in [1] (rate 400 ppm, sprayed leaves) came out at 0%. The pest or weed control at 400 µg/mL lay in the range of 90 to 100% in [2]; 0 to 19% in data set [4]; 0 to 19% in data set [5]; 90 to 100% in [7]; 20 to 89% in data set [9]. For the same compound, the “CRW results (percent mortality)” value in data set [6] (CRW rate 24.00 ppm) worked out at 0%. In addition, in data set [6] (CRW rate 12.00 ppm), the mortality at 12 ppm was 0%. The mortality at 24 ppm in data set [6] (CRW rate 24.00 ppm) is 0%. For the same compound, in data set [8] (rate 400 ppm, sprayed leaves), the “MA results (percent mortality)” value is recorded as 0%.
On to `Cc1coc2ncnc(NCCc3ccc4ccccc4c3)c12` [Example 21, 5-methyl-N-[2-(2-naphthyl)ethyl]furo[2,3-d]pyrimidin-4-amine], for which the mortality at 200 ppm stood at 0% in [1] (rate 200 ppm, sprayed leaves); 80% in data set [3] (rate 200 ppm, sprayed leaves); 100% in [8] (rate 200 ppm, sprayed leaves). Also, the mortality at 400 ppm turned out to be 0% in data set [1] (rate 400 ppm, sprayed leaves); 60% in data set [3] (rate 400 ppm, sprayed leaves); 80% in data set [8] (rate 400 ppm, sprayed leaves). Also, the pest or weed control at 400 µg/mL in data set [2] was 90 to 100%; in data set [4] it was 90 to 100%; in data set [5], 0 to 19%; in [7] it was 90 to 100%; in [9], 0 to 19%. The mortality at 12 ppm in [6] (CRW rate 12.00 ppm) is 100%. The mortality at 24 ppm in data set [6] (CRW rate 24.00 ppm) was determined as 100%.
Take `Cc1oc2ncnc(NCCc3ccc4ccccc4c3)c2c1C` [Example 22, 5,6-dimethyl-N-[2-(2-naphthyl)ethyl]furo[2,3-d]pyrimidin-4-amine]: the mortality at 200 ppm in data set [1] (rate 200 ppm, sprayed leaves) was 0%; in [3] (rate 200 ppm, sprayed leaves), 0%; in [8] (rate 200 ppm, sprayed leaves), 0%. The mortality at 400 ppm in data set [1] (rate 400 ppm, sprayed leaves) worked out at 0%; in data set [3] (rate 400 ppm, sprayed leaves), 0%; in [8] (rate 400 ppm, sprayed leaves) it was 0%. Further, the pest or weed control at 400 µg/mL in data set [2], in data set [4], in data set [5], in data set [7] and in data set [9] was 0 to 19% each time. Moreover, in data set [6] (CRW rate 12.00 ppm), the mortality at 12 ppm came to 0%. Also, the mortality at 24 ppm in [6] (CRW rate 24.00 ppm) amounted to 0%.
As to `Cc1oc2ncnc(NCCc3cccc(C(F)(F)F)c3)c2c1C` [Example 23, 5,6-dimethyl-N-[2-[3-(trifluoromethyl)phenyl]ethyl]furo[2,3-d]pyrimidin-4-amine], the mortality at 200 ppm is 0% in data set [1] (rate 200 ppm, sprayed leaves); 0% in [3] (rate 200 ppm, sprayed leaves); 0% in data set [8] (rate 200 ppm, sprayed leaves). Moreover, the mortality at 400 ppm worked out at 0% in [1] (rate 400 ppm, sprayed leaves); 0% in data set [3] (rate 400 ppm, sprayed leaves); 0% in data set [8] (rate 400 ppm, sprayed leaves). Further, the pest or weed control at 400 µg/mL in data set [2] lay in the range of 0 to 19%; in [4] it was 0 to 19%; in data set [5] it was 0 to 19%; in data set [7], 20 to 89%; in data set [9], 0 to 19%. In addition, the mortality at 12 ppm in data set [6] (CRW rate 12.00 ppm) was found to be 100%. Besides, the mortality at 24 ppm in data set [6] (CRW rate 24.00 ppm) amounted to 0%.
`Cc1ccc(CCNc2ncnc3oc(C)c(C)c23)cc1` [Example 24, 5,6-dimethyl-N-[2-(4-methylphenyl)ethyl]furo[2,3-d]pyrimidin-4-amine]: the mortality at 200 ppm in data set [1] (rate 200 ppm, sprayed leaves) amounted to 0%; in data set [3] (rate 200 ppm, sprayed leaves), 0%; in data set [8] (rate 200 ppm, sprayed leaves), 0%. The mortality at 400 ppm in data set [1] (rate 400 ppm, sprayed leaves) is 0%; in data set [3] (rate 400 ppm, sprayed leaves), 0%; in data set [8] (rate 400 ppm, sprayed leaves), 0%. In addition, the pest or weed control at 400 µg/mL in data set [2] lay in the range of 0 to 19%; in data set [4], 0 to 19%; in [5], 0 to 19%; in data set [7] it was 90 to 100%; in [9], 20 to 89%. For the same compound, in [6] (CRW rate 12.00 ppm), the mortality at 12 ppm was found to be 0%. Further, the mortality at 24 ppm in data set [6] (CRW rate 24.00 ppm) is 0%.
With `COc1ccc(CCNc2ncnc3oc(C)c(C)c23)cc1OC` [Example 25, 5,6-dimethyl-N-[2-(3,4-dimethoxyphenyl)ethyl]furo[2,3-d]pyrimidin-4-amine], the mortality at 200 ppm came to 0% in data set [1] (rate 200 ppm, sprayed leaves); 0% in [3] (rate 200 ppm, sprayed leaves); 0% in data set [8] (rate 200 ppm, sprayed leaves). In addition, the mortality at 400 ppm in [1] (rate 400 ppm, sprayed leaves) amounted to 0%; in data set [3] (rate 400 ppm, sprayed leaves), 0%; in data set [8] (rate 400 ppm, sprayed leaves), 0%. The pest or weed control at 400 µg/mL in [2] was 0 to 19%; in [4], 0 to 19%; in [5], 0 to 19%; in data set [7], 20 to 89%; in data set [9], 0 to 19%. Besides, in data set [6] (CRW rate 12.00 ppm), the mortality at 12 ppm came to 0%. For the same compound, the mortality at 24 ppm in data set [6] (CRW rate 24.00 ppm) amounted to 0%.
